{"source": "patent US9365590B2", "about": "“Selenophene-fused aromatic compound and manufacturing method thereof” (Industry-Academia Cooperation Group of Sejong University, priority 2011, dated 2016)"}
{"test_system": "SK-OV-3 cancer cells", "assay": "SK-OV-3 cancer cell proliferation inhibition (WST-1 assay)", "assay_type": "cell-based", "details": "Homo sapiens, SK-OV-3, 72 h, read-out: Proliferation inhibition effect (10 nM; %)", "method": "(§1) Meanwhile, in the present Example, proliferation inhibition effect of the compound in accordance with Comparative Example 1 and the compounds corresponding to Entry 59 to Entry 72 on SK-OV-3 cancer cells were checked, and a result thereof was as shown in [Table 5].\n(§2) <Experiment Method of Proliferation Inhibition Effect>\n(§3) SK-OV-3 cells floated on McCoy's 5A Medium in which 10% FBS and 1% P/S were added were inoculated into a 96-Well plate at a concentration of 3×10^4/100 μl per Well and cultured at 37° C. for 4 hours and then, treated with 100 μl of each compound, so that a final concentration of 10 nM was attained. Then, the cells were cultured at 37° C. for 72 hours. As a control, the cells were treated with DMSO as a solvent of the compounds to attain a final concentration of 0.1%. Each well was treated with 10 μl of a WST-1 assay reagent (iTSBio, Korea), and cultured at 37° C. for 2 hours. Then, absorbance was measured with an automatic Microplate Reader at 450 nm. A cell growth inhibition level was calculated by {(A450control−A450compound)/A450control}*100.", "units": {"inhibition at 0.01 µM": "%"}}
{"smiles": "COc1ccc2c(O)cc3c(c2c1)[C@H](CCl)CN3C(=O)c1cc2cc(OC)c(OC)c(OC)c2[nH]1", "note": "[Comparative Example 1, seco-MCBI-TMI, reference compound]", "inhibition at 0.01 µM": 80}
{"smiles": "COc1ccc2c(O)cc3c(c2c1)[C@H](CCl)CN3C(=O)c1cc2cc([N+](=O)[O-])ccc2[se]1", "note": "[Entry 59, seco-MCBI-Nitro-Selenophene]", "inhibition at 0.01 µM": 74}
{"smiles": "COc1ccc2[se]c(C(=O)N3C[C@@H](CCl)c4c3cc(O)c3ccc(OC)cc43)cc2c1", "note": "[Entry 60, seco-MCBI-Methoxy-Selenophene]", "inhibition at 0.01 µM": 78}
{"smiles": "COc1ccc2c(O)cc3c(c2c1)[C@H](CCl)CN3C(=O)c1cc2cc(NC(C)=O)ccc2[se]1", "note": "[Entry 61, seco-MCBI-Acetamino-Selenophene]", "inhibition at 0.01 µM": 81}
{"smiles": "COc1ccc2c(c1)C13CC1CN(C(=O)c1cc4cc(NC(C)=O)ccc4[se]1)C3=CC2=O", "note": "(stereo not drawn) [Entry 62]", "inhibition at 0.01 µM": 86}
{"smiles": "COc1ccc2c(O)cc3c(c2c1)[C@H](CCl)CN3C(=O)c1cc2sccc2[se]1", "note": "[Entry 63]", "inhibition at 0.01 µM": 78}
{"smiles": "COc1ccc2cc(C(=O)N3C[C@@H](CCl)c4c3cc(O)c3ccc(OC)cc43)[se]c2c1", "note": "[Entry 64]", "inhibition at 0.01 µM": 85}
{"smiles": "CCCCCC(=O)Nc1ccc2[se]c(C(=O)N3C[C@@H](CCl)c4c3cc(O)c3ccc(OC)cc43)cc2c1", "note": "[Entry 66]", "inhibition at 0.01 µM": 87}
{"smiles": "COc1ccc2c(O)cc3c(c2c1)[C@H](CCl)CN3C(=O)c1cc2cc(OC)c(OC)cc2[se]1", "note": "[Entry 67]", "inhibition at 0.01 µM": 78}
{"smiles": "COc1ccc2c(O)cc3c(c2c1)[C@H](CCl)CN3C(=O)c1cc2cccnc2[se]1", "note": "[Entry 68]", "inhibition at 0.01 µM": 82}
{"smiles": "COc1ccc2c(O)cc3c(c2c1)[C@H](CCl)CN3C(=O)c1cc2occc2[se]1", "note": "[Entry 69]", "inhibition at 0.01 µM": 73}
{"smiles": "CCCC(=O)Nc1ccc2[se]c(C(=O)N3C[C@@H](CCl)c4c3cc(O)c3ccccc43)cc2c1", "note": "[Entry 71]", "inhibition at 0.01 µM": 73}
{"smiles": "CCCC(=O)Nc1ccc2[se]c(C(=O)N3C[C@H]4C[C@@]45C3=CC(=O)c3ccccc35)cc2c1", "note": "[Entry 72]", "inhibition at 0.01 µM": 75}
{"test_system": "SK-OV-3 cancer cells", "assay": "SK-OV-3 cancer cell proliferation inhibition (WST-1 assay)", "assay_type": "cell-based", "details": "Homo sapiens; SK-OV-3 cells, final concentration of 10 nM, cultured 72 hours, WST-1, absorbance 450 nm, vs DMSO control; read-out: Proliferation inhibition effect (10 nM; %)", "method": "as §1, §2, §3", "units": {"inhibition at 0.01 µM": "%"}}
{"smiles": "COc1cc2cc(C(=O)N3C[C@@H](CCl)c4c3cc(O)c3ccccc43)[nH]c2c(OC)c1OC", "note": "[Entry 70, CBI-TMI, reference compound]", "inhibition at 0.01 µM": 80}
{"test_system": "not given", "assay": "not given", "details": "not given", "units": {"melting point": "°C"}}
{"smiles": "CCOC(=O)c1cc2cc(N)ccc2[se]1", "melting point": "78 to 80"}
